From patent US20230089073A1 (Carmot Therapeutics, Inc., priority 2021, published 2023) come the findings set out here.

For the experiment, the target named is T1, human GLP-1 receptor (Homo sapiens, UniProt P43220).
T1 construct: expressed in transfected cells
Nature of the experiment: GLP-1R cAMP Assay. The conditions noted are these: cAMP accumulation in CHO cells stably overexpressing the human GLP-1 receptor; 30 min treatment; HitHunter cAMP kit; read-out: EC50. The experiment is classed as cell-based. The method in brief: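 CHO cells stably overexpressing human GLP-1R, 10,000 cells/well, treated with compound in 20-point dose response in triplicate for 30 min. cAMP accumulation read by enzyme-complementation luminescence after lysis and overnight incubation; dose-response curves fitted.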
On the technique in general: Changes in cAMP serve as a functional read-out for many G protein-coupled receptors.

pEC50: −log10 of the molar value.

T1 sequence (P43220 24-463): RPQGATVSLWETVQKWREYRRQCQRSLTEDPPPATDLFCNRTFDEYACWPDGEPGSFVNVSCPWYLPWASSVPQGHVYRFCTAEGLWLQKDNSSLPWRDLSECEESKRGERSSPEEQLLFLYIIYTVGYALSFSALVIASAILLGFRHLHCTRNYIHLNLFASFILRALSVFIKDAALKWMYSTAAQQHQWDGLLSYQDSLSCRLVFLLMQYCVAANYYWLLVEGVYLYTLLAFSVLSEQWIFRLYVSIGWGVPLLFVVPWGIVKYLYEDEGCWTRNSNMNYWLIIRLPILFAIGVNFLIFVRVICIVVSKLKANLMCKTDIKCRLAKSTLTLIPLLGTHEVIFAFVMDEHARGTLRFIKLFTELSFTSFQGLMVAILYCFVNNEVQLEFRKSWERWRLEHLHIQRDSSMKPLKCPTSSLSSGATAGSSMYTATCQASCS

For the compound `N#Cc1cc(C2CC2)ccc1OCc1nccc(OC2CCN(Cc3nc4ccc(C(=O)O)cc4n3C[C@@H]3CCO3)CC2)n1` [Compound 476, 2-{[4-({2-[(2-cyano-4-cyclopropylphenoxy)methyl]pyrimidin-4-yl}oxy)piperidin-1-yl]methyl}-1-{[(2S)-oxetan-2-yl]methyl}-1H-1,3-benzodiazole-6-carboxylic acid], the pEC50 – broadly, the EC50 on a negative log10 scale, so that one unit is a factor of ten – is > 7.30.

For the compound `COCCC1(Cn2c(CN3CCC(Oc4ccnc(COc5ccc(Cl)cc5F)c4)CC3)nc3ccc(C(=O)O)cc32)CC1` [Compound 354], the pEC50 is > 7.30.

Take `O=C(O)c1cc(F)c2nc(CN3CCC(N(CC4CC4)c4ccnc(COc5ccc(Cl)cc5F)n4)CC3)n(C[C@@H]3CCO3)c2c1` [Compound 511, 2-{[4-({2-[(4-chloro-2-fluorophenoxy)methyl]pyrimidin-4-yl}(cyclopropylmethyl)amino)piperidin-1-yl]methyl}-4-fluoro-1-{[(2S)-oxetan-2-yl]methyl}-1H-1,3-benzodiazole-6-carboxylic acid]: the pEC50 was > 7.30.

On to `CCn1cncc1Cn1c(CN2CCC(Oc3cnc(COc4ccc(Cl)cc4Cl)o3)CC2)nc2ccc(C(=O)O)cc21` [Compound 214, 2-{[4-({2-[(2,4-dichlorophenoxy)methyl]-1,3-oxazol-5-yl}oxy)piperidin-1-yl]methyl}-1-[(1-ethyl-1H-imidazol-5-yl)methyl]-1H-1,3-benzodiazole-6-carboxylic acid], for which the pEC50 is > 7.30.

As for `N#Cc1cc(F)c(OCc2nccc(OC3CCN(Cc4nc5c(F)cc(C(=O)O)cc5n4C[C@@H]4CCO4)CC3)n2)cc1F` [Compound 502, 2-{[4-({2-[(4-cyano-2,5-difluorophenoxy)methyl]pyrimidin-4-yl}oxy)piperidin-1-yl]methyl}-4-fluoro-1-{[(2S)-oxetan-2-yl]methyl}-1H-1,3-benzodiazole-6-carboxylic acid], the pEC50 is > 7.30.

As to `Cc1ccc(N(C)c2cccc(C(=O)N3CCN(Cc4nc5ccc(C(=O)O)cc5n4C[C@@H]4CCO4)CC3)c2)c(Cl)c1` [Compound 51, 2-[(4-{3-[(2-chloro-4-methylphenyl)(methyl)amino]benzoyl}piperazin-1-yl)methyl]-1-{[(2S)-oxetan-2-yl]methyl}-1H-1,3-benzodiazole-6-carboxylic acid], the pEC50 was > 7.30.

`O=C(O)c1ccc2nc(CN3CCC(Oc4ccnc(COc5ccc(Cl)cc5F)c4)CC3)n(Cc3ncco3)c2c1` [Compound 258, 2-{[4-({2-[(4-chloro-2-fluorophenoxy)methyl]pyridin-4-yl}oxy)piperidin-1-yl]methyl}-1-[(1,3-oxazol-2-yl)methyl]-1H-1,3-benzodiazole-6-carboxylic acid]: the pEC50 was > 7.30.

As for `O=C(O)c1ccc2nc(CN3CC=C(Cc4ccc(COc5ccc(Cl)cc5Cl)o4)CC3)n(C[C@@H]3CCO3)c2c1` [Compound 84, 2-{[4-({5-[(2,4-dichlorophenoxy)methyl]furan-2-yl}methyl)-1,2,3,6-tetrahydropyridin-1-yl]methyl}-1-{[(2S)-oxetan-2-yl]methyl}-1H-1,3-benzodiazole-6-carboxylic acid], the pEC50 is > 7.30.

Take `Cc1ccc(N(C)c2ccnc(C(=O)N3CCN(Cc4nc5ccc(C(=O)O)cc5n4C[C@@H]4CCO4)CC3)c2)c(Cl)c1` [Compound 88, 2-[(4-{4-[(2-chloro-4-methylphenyl)(methyl)amino]pyridine-2-carbonyl}piperazin-1-yl)methyl]-1-{[(2S)-oxetan-2-yl]methyl}-1H-1,3-benzodiazole-6-carboxylic acid]: the pEC50 is < 6.30.

Consider `Cc1ccc(Oc2cccc(C(=O)N3CCN(Cc4nc5ccc(C(=O)O)cc5n4C[C@@H]4CCO4)CC3)c2)c(Cl)c1` [Compound 15, 2-({4-[3-(2-chloro-4-methylphenoxy)benzoyl]piperazin-1-yl}methyl)-1-{[(2S)-oxetan-2-yl]methyl}-1H-1,3-benzodiazole-6-carboxylic acid], for which the pEC50 is 6.30 to 7.30.

Take `CCn1cncc1Cn1c(CN2CCN(C(=O)c3cccc(COc4ccc(C#N)cc4F)c3)CC2)nc2ccc(C(=O)O)cc21` [Compound 69, 2-[(4-{3-[(4-cyano-2-fluorophenoxy)methyl]benzoyl}piperazin-1-yl)methyl]-1-[(1-ethyl-1H-imidazol-5-yl)methyl]-1H-1,3-benzodiazole-6-carboxylic acid]: the pEC50 was < 6.30.

For the compound `C[C@H]1C[C@@H](Oc2cccc(COc3ccc(C#N)cc3F)c2)CCN1Cc1nc2ccc(C(=O)O)cc2n1C[C@@H]1CCO1` [Compound 319], the pEC50 was > 7.30.

With `O=C(O)c1ccc2nc(CN3CCN(C(=O)c4cccc(Oc5ccc(F)cc5)c4)CC3)n(C[C@@H]3CCO3)c2c1` [Compound 13, 2-({4-[3-(4-fluorophenoxy)benzoyl]piperazin-1-yl}methyl)-1-{[(2S)-oxetan-2-yl]methyl}-1H-1,3-benzodiazole-6-carboxylic acid], the pEC50 is < 6.30.

Regarding `O=C(O)c1ccc2nc(CN3CCC(Oc4cccc(COc5ccc(Cl)cc5F)n4)CC3)n(Cc3cnco3)c2c1` [Compound 269, 2-{[4-({6-[(4-chloro-2-fluorophenoxy)methyl]pyridin-2-yl}oxy)piperidin-1-yl]methyl}-1-[(1,3-oxazol-5-yl)methyl]-1H-1,3-benzodiazole-6-carboxylic acid], the pEC50 is > 7.30.

Turning to `O=C(O)c1cc(F)c2nc(CN3CCC(Oc4ccnc(COc5ccc(Cl)cc5F)n4)CC3)n(C[C@@H]3CCO3)c2c1` [Compound 315], the pEC50 was > 7.30.

On to `CCn1cncc1Cn1c(CN2CCC(CF)(Cc3ccnc(COc4ccc(Cl)cc4Cl)c3)CC2)nc2ccc(C(=O)O)cc21` [Example 164, 2-((4-((2-((2,4-Dichlorophenoxy)methyl)pyridin-4-yl)methyl)-4-(fluoromethyl)piperidin-1-yl)methyl)-1-((1-ethyl-1H-imidazol-5-yl)methyl)-1H-benzo[d]imidazole-6-carboxylic acid], for which the pEC50 was > 7.30.

As to `Cc1ccc(OCc2cccc(CC3CCN(Cc4nc5ccc(C(=O)O)cc5n4C[C@@H]4CCO4)CC3)n2)c(C#N)c1` [Example 114, (S)-2-((4-((6-((2-Cyano-4-methylphenoxy)methyl)pyridin-2-yl)methyl)piperidin-1-yl)methyl)-1-(oxetan-2-ylmethyl)-1H-benzo[d]imidazole-6-carboxylic acid], the pEC50 was > 7.30.

With `N#Cc1cc(Cl)ccc1OCc1cccc(CC2CCN(Cc3nc4ccc(C(=O)O)cc4n3C[C@@H]3CCO3)CC2)c1` [Compound 166, 2-{[4-({3-[(4-chloro-2-cyanophenoxy)methyl]phenyl}methyl)piperidin-1-yl]methyl}-1-{[(2S)-oxetan-2-yl]methyl}-1H-1,3-benzodiazole-6-carboxylic acid], the pEC50 was > 7.30.

In the case of `CCn1cncc1Cn1c(CN2CCN(C(=O)c3cnc(COc4ccc(C5CC5)cc4Cl)o3)CC2)nc2ccc(C(=O)O)cc21` [Compound 160, 2-[(4-{2-[(2-chloro-4-cyclopropylphenoxy)methyl]-1,3-oxazole-5-carbonyl}piperazin-1-yl)methyl]-1-[(1-ethyl-1H-imidazol-5-yl)methyl]-1H-1,3-benzodiazole-6-carboxylic acid], the pEC50 is > 7.30.

`Cc1cc(C(=O)O)cc2c1nc(CN1CC[C@H](Oc3ccnc(COc4ccc(C#N)cc4F)c3)C[C@@H]1C)n2C[C@@H]1CCO1` [Compound 503, 2-{[(2S,4S)-4-({2-[(4-cyano-2-fluorophenoxy)methyl]pyridin-4-yl}oxy)-2-methylpiperidin-1-yl]methyl}-4-methyl-1-{[(2S)-oxetan-2-yl]methyl}-1H-1,3-benzodiazole-6-carboxylic acid]: the pEC50 is > 7.30.

Regarding `Cc1ccc(N(C)c2cc(C(=O)N3CCN(Cc4nc5ccc(C(=O)O)cc5n4C[C@@H]4CCO4)CC3)ccc2F)c(Cl)c1` [Example 95, (S)-2-((4-(3-((2-Chloro-4-methylphenyl)(methyl)amino)-4-fluorobenzoyl)piperazin-1-yl)methyl)-1-(oxetan-2-ylmethyl)-1H-benzo[d]imidazole-6-carboxylic acid], the pEC50 is 6.30 to 7.30.

For `O=C(O)c1ccc2nc(CN3CCC(Oc4cccc(COc5cccc(Cl)c5Cl)c4)CC3)n(C[C@@H]3CCO3)c2c1` [Compound 243, 2-[(4-{3-[(2,3-dichlorophenoxy)methyl]phenoxy}piperidin-1-yl)methyl]-1-{[(2S)-oxetan-2-yl]methyl}-1H-1,3-benzodiazole-6-carboxylic acid], the pEC50 was > 7.30.

For `O=C(O)c1ccc2nc(CN3CCC(Cc4cccc(COc5ccc(C6CC6)cc5Cl)n4)CC3)n(C[C@@H]3CCO3)c2c1` [Example 152, (S)-2-((4-((6-((2-Chloro-4-cyclopropylphenoxy)methyl)pyridin-2-yl)methyl)piperidin-1-yl)methyl)-1-(oxetan-2-ylmethyl)-1H-benzo[d]imidazole-6-carboxylic acid], the pEC50 is > 7.30.

Consider `Cc1ccc(Oc2cccc(C(=O)N3CCN(Cc4nc5ccc(C(=O)O)cc5n4C[C@@H]4CCO4)CC3)c2)c(C)c1` [Compound 18, 2-({4-[3-(2,4-dimethylphenoxy)benzoyl]piperazin-1-yl}methyl)-1-{[(2S)-oxetan-2-yl]methyl}-1H-1,3-benzodiazole-6-carboxylic acid], for which the pEC50 was 6.30 to 7.30.

For `Cc1ccc(Oc2cccc(C(=O)N3CCN(Cc4nc5ccc(C(=O)O)cc5n4C[C@@H]4CCO4)CC3)c2)c(F)c1` [Compound 16, 2-({4-[3-(2-fluoro-4-methylphenoxy)benzoyl]piperazin-1-yl}methyl)-1-{[(2S)-oxetan-2-yl]methyl}-1H-1,3-benzodiazole-6-carboxylic acid], the pEC50 was < 6.30.

For the compound `C[C@H]1C[C@H](Oc2ccnc(COc3ccc(Cl)cc3Cl)c2)CCN1Cc1nc2ccc(C(=O)O)cc2n1C[C@@H]1CCO1` [Compound 295, 2-{[(2S,4R)-4-({2-[(2,4-dichlorophenoxy)methyl]pyridin-4-yl}oxy)-2-methylpiperidin-1-yl]methyl}-1-{[(2S)-oxetan-2-yl]methyl}-1H-1,3-benzodiazole-6-carboxylic acid], the pEC50 is > 7.30.
